{
  "source": "patent US9943569B2",
  "about": "“Method for preventing or reducing postoperative pulmonary complications” (OSAKA UNIVERSITY, priority 2015, dated 2018)",
  "system": "patients undergoing esophagectomy",
  "test": "Changes in body weight and body composition (dual-energy X-ray absorptiometry)",
  "format": "in vivo, human",
  "conditions": "preoperatively vs POD10",
  "experimental": "Dual-energy X-ray absorptiometry (Hologic QDR-2000; Hologic Inc, Waltham, Mass.) was used to assess total body composition, including lean body weight and fat body weight, of all participants.^35 These measurements were performed preoperatively and 10 days postoperatively with the subject in the supine position.\nHowever, in the postoperative test, rapid turnover proteins used as nutritional markers, such as, transthyretin, transferrin, and retinol binding protein, were more highly retained in the ghrelin group than in the placebo group. This finding is consistent with the findings in previous studies that ghrelin prevented nutritional deterioration. […] We compared changes in weight and body composition between the 2 groups. During the study period, changes in body weight were monitored as a percentage of the weight on admission (preoperation).",
  "key": {"[1]": {"conditions": "dual-energy X-ray absorptiometry"}},
  "data": [
    {"smiles": "CCCCCCCC(=O)OC[C@H](NC(=O)[C@H](CO)NC(=O)CN)C(=O)N[C@@H](Cc1ccccc1)C(=O)N[C@@H](CC(C)C)C(=O)N[C@@H](CO)C(=O)N1CCC[C@H]1C(=O)N[C@@H](CCC(=O)O)C(=O)N[C@@H](Cc1cnc[nH]1)C(=O)N[C@@H](CCC(N)=O)C(=O)N[C@@H](CCCNC(=N)N)C(=O)N[C@H](C(=O)N[C@@H](CCC(N)=O)C(=O)N[C@@H](CCC(N)=O)C(=O)N[C@@H](CCCNC(=N)N)C(=O)N[C@@H](CCCCN)C(=O)N[C@@H](CCC(=O)O)C(=O)N[C@@H](CO)C(=O)N[C@@H](CCCCN)C(=O)N[C@@H](CCCCN)C(=O)N1CCC[C@H]1C(=O)N1CCC[C@H]1C(=O)N[C@@H](C)C(=O)N[C@@H](CCCCN)C(=O)N[C@@H](CC(C)C)C(=O)N[C@@H](CCC(N)=O)C(=O)N1CCC[C@H]1C(=O)N[C@@H](CCCNC(=N)N)C(=O)O)C(C)C", "note": "[ghrelin]", "values": [
      {"measurement": "percent decrease in total weight", "result": "−3.5±2.7", "unit": "%"},
      {"measurement": "percent decrease in body fat weight", "setting": "[1]", "result": "−3.2±5.0", "unit": "%"},
      {"measurement": "percent decrease in lean body weight", "setting": "[1]", "result": "−4.2%±3.0"}
    ]}
  ]
}
